From patent publication US20200093814A1, “COMBINATION THERAPY WITH AMIDINE SUBSTITUTED BETA-LACTAM COMPOUNDS AND BETA-LACTAMASE INHIBITORS FOR INFECTIONS WITH ANTIBIOTIC RESISTANT BACTERIAL STRAINS” (AiCuris GmbH & Co. KG, priority 2016, published 2020)

Key:
Type in all cases: cell-based
Conditions in all cases: BLI where combined at 4 μg/mL
E. coli 10 (TEM-20) = assay: MIC determination, broth microdilution (CLSI)
Excerpt: (§1) While the compounds of this invention were serially diluted as described above, a constant concentration of the β-lactamase inhibitor of […] was used.

E. coli 121 (CTX-M) = assay: MIC determination, broth microdilution (CLSI)
Excerpt: as §1

E. coli 128 (SHV-2a) = assay: MIC determination, broth microdilution (CLSI)
Excerpt: as §1

[1] = system: E. coli 17 (CTX-M, CMY-2); assay: MIC determination, broth microdilution (CLSI)
Excerpt: as §1

E. coli 72 (CTX-M) = assay: MIC determination, broth microdilution (CLSI)
Excerpt: as §1

[2] = system: E. coli DSM 22315 (VEB-1); assay: MIC determination, broth microdilution (CLSI)
Excerpt: as §1

[3] = system: E. coli J62-TEM-3 transconjugant (TEM-3); assay: MIC determination, broth microdilution (CLSI)
Excerpt: as §1

[4] = system: K. pneumoniae 16/10 (OXA-48, CTX-M-15); assay: MIC determination, broth microdilution (CLSI)
Excerpt: as §1

K. pneumoniae 68 (SHV-5) = assay: MIC determination, broth microdilution (CLSI)
Excerpt: as §1

K. pneumoniae 79 (CTX-M) = assay: MIC determination, broth microdilution (CLSI)
Excerpt: as §1

[5] = system: K. pneumoniae NRZ-15601 (OXA-48, SHV-12); assay: MIC determination, broth microdilution (CLSI)
Excerpt: as §1

[6] = system: E. cloacae 58 (SHV-12, de-repressed AmpC)
[7] = system: K. pneumoniae NCTC 13440 (VIM-1, SHV-12); assay: MIC determination, broth microdilution (CLSI)
Excerpt: as §1

Compound | MIC (E. coli 10 (TEM-20)) | MIC (E. coli 121 (CTX-M)) | MIC (E. coli 128 (SHV-2a)) | MIC [1] | MIC (E. coli 72 (CTX-M)) | MIC [2] | MIC [3] | MIC [4] | MIC (K. pneumoniae 68 (SHV-5)) | MIC (K. pneumoniae 79 (CTX-M)) | MIC [5] | MIC [6] | MIC [7]
CC(C)(O/N=C(\C(=O)N[C@@H]1C(=O)N2C(C(=O)[O-])=C(C[n+]3ccccc3)CS[C@H]12)c1csc(N)n1)C(=O)O [ceftazidime] | 32 µg/mL | 32 µg/mL | 16 µg/mL | 128 µg/mL | 32 µg/mL | 128 µg/mL | 16 µg/mL | 128 µg/mL | 64 µg/mL | 16 µg/mL | 64 µg/mL | 128 µg/mL | 
aztreonam | 64 µg/mL | 64 µg/mL | 8 µg/mL | 128 µg/mL | 128 µg/mL | 64 µg/mL | 8 µg/mL |  | 128 µg/mL | 32 µg/mL |  |  | 128 µg/mL
